Measured values published in article PMC6383948, “Evaluation of a class of isatinoids identified from a high-throughput screen of human kinase inhibitors as anti-Sleeping Sickness agents” (PLoS Neglected Tropical Diseases, 2019).
Marks after values point to notes of the source that are not given here.

Columns and labels:
[1] = test system: MRC5-SV2 cell line; assay: Cytotoxicity assay in MRC5 (resazurin, 48 h); format: cell-based, human; details: MRC5 toxicity
Procedure: For dose-response experiments, compound plates were prepared for each analogue by serial 3-fold dilutions in 100% DMSO. Five concentration points (mammalian cytotoxicity) or ten concentration points (parasite growth inhibition), were made in 96-well transparent Nunclon plates. Pentamidine is routinely included in compound plates as internal quality control, and plates are stored sealed at -20 °C for no more than four weeks. Intermediate plates were made as described, adding 95 μL of DMEM complete media to 5 μL of compound per well setting a 5% DMSO amount. Log-phase MRC5 cells were removed from a T-75 TC flask using TrypLE® Express (Thermo®) and dispersed by gentle pipetting. Cell density was adjusted to working concentration in prewarmed DMEM medium: 25,000 cells in 90 μL of culture were plated in 96-well transparent Nunclon plates and let to settle for 24 h at 37 °C and 5% CO2. After settling incubation, 10 μL of fresh made intermediate plate were added per well: final maximal concentration for compounds was 50 μM in 0.5% DMSO per well. […] Fluorescence was read in an Infinite F200 plate reader (Tecan®) at 550 nm (excitation filter) and 590 nm (emission filter). A 4-parameter equation was used to fit the dose-response curves and determination of EC50 by SigmaPlot ® 13.0 software. Assays were performed in duplicate at least twice for positive compounds, to achieve a minimal n=3 per dose response.

[2] = test system: T. b. brucei; assay: T. b. brucei growth inhibition EC50 assay (resazurin, 72 h); format: cell-based, Trypanosoma brucei brucei Lister 427; details: 72 h, resazurin, error within ±0.20 (Table 2) or ±0.08 (Table 3) log units; for EC50: Trypanosoma brucei, read-out: T.b.b. pEC50 (converted)
Procedure: Mid-log phase growth T. b. brucei was diluted to a working cell density of 2,750 cells/mL and 90 μL/well dispensed into 96-well flat-bottom transparent assay plates (Nunc). Ten μL/well from intermediate plates were added. The final top concentration of compounds was 40 μM in 0.4% DMSO per well.
Assay plates were incubated for 72 h at 37°C and 5% CO2. Four hours prior to the end of the incubation, 20 μL of a 440 μM resazurin solution in prewarmed HMI-9 was added to each well and incubated for another 4 h. Fluorescence was then measured in an Infinite F200 plate reader (Tecan) at 550 nm (excitation filter) and 590 nm (emission filter). A 4-parameter equation was employed to fit the dose-response curves and determine of EC50 using the SigmaPlot 13.0 software. Assays were performed in duplicate at least twice, to achieve a minimal n = 3 per dose response.
Bloodstream Trypanosoma brucei brucei Lister 427 was cultured in Hirumi’s modified Iscove’s medium (HMI-9), supplemented with 10% heat-inactivated FBS, at 37 °C and 5% CO2 in T-25 vented flask (Corning®).
For dose-response experiments, compound plates were prepared for each analogue by serial 3-fold dilutions in 100% DMSO. Five concentration points (mammalian cytotoxicity) or ten concentration points (parasite growth inhibition), were made in 96-well transparent Nunclon plates. Pentamidine is routinely included in compound plates as internal quality control, and plates are stored sealed at -20 °C for no more than four weeks.

[3] = test system: S. mansoni adults and somules; assay: S. mansoni phenotypic assay, adults and somules (severity score); format: cell-based, Schistosoma mansoni (NMRI isolate); details: score 0-4; for Adult severity score (10 μM): adults; for Somule severity score (10 μM): somules
Procedure: Maintenance of the Schistosoma mansoni life cycle, preparation of somules (post-infective larvae) and adult worms (≥42-days-old), and co-incubation of these stages with test compounds were as described. An NMRI isolate of S. mansoni was used for all whole-organism screens.
Somules (40 units/well/96w round-bottomed plate) or adults (five paris/well/24w plate) were cultured in the presence of compounds at 10 µM and phenotypic changes observed as a function of time using an Zeiss Axiovert A1 inverted microscope (Table S4). A constrained nomenclature was used to describe the effects of compounds on parasites (changes in shape, motility and density). To generate a partially quantitative output for comparing drug effects, each descriptor was awarded a score of 1 and these were summed to a maximum score of 4 [7-10]: evidence of degeneracy or death was awarded the maximum score of 4. For adults specifically, damage to the tegument (outer surface) was also awarded a score of 4 based on the indication that damage to the patrasite’s surface is lethal in vivo [11]. Assays were performed twice and representative data are shown.

[4] = Human plasma protein binding (equilibrium dialysis); format: in vitro ADME; details: pH 7.4, read-out: PPB (converted)
Procedure: PPB is determined using equilibrium dialysis (RED device) to separate free from bound compound. The amount of compound in plasma (10 µM initial concentration) and in dialysis buffer (pH 7.4 phosphate buffer) is measured by LC-MS/MS after equilibration at 37 °C in a dialysis chamber. The fraction unbound (fu) is reported.

[5] = test system: L. donovani; assay: EC50 in L. donovani (infected THP-1 macrophages, luciferase); format: cell-based, Leishmania donovani MHOM/ET/67/HU3; details: Leishmania donovani, 72 h, read-out: L. donovani pEC50 (converted)
Procedure: Leishmania donovani MHOM/ET/67/HU3 cells with the luciferase gene integrated into the parasite genome[1] were grown at 28 °C in RPMI 1640-modified medium (Invitrogen) supplemented with 20% FBS with […] of hygromycin B.
The Human myelomonocytic cell line THP-1 was grown at 37 °C and 5% CO2 in RPMI-1640 supplemented with 10% iFBS, 2 mM […], 100 U/mL penicillin and […] streptomycin. 3 x 10^4 THP-1 cells per well in 96-well plates were differentiated to macrophages with 20 ng/mL of PMA treatment for 48 h followed by 24 h of culture in fresh medium.
Macrophage-differentiated THP-1 cells were infected at a macrophage/parasite ratio of 1/10 with stationary L. donovani promastigotes for 24 h at 35 °C and 5% CO2, and extracellular parasites were removed by washing with PBS. Infected cell cultures were then incubated with different compounds concentrations at 37 °C for 72 h. Luminescence was measured using the Promega kit luciferase assay system (Promega, Madison, WI). Assays were performed in duplicate at least twice, to achieve a minimal n=3 per dose response.

[6] = test system: T. cruzi; assay: β-D-Galactosidase transgenic T. cruzi assay (amastigote-infected L6 cells); format: cell-based, T. cruzi Tulahuen C4 strain; details: Trypanosoma cruzi, 96 h, read-out: T. cruzi pEC50 (converted)
Procedure: The T. cruzi Tulahuen C4 strain, expressing the β-galactosidase gene (LacZ) and L6 rat skeletal muscle cells, used as host cells, were cultured in RPMI-1640 supplemented with 10% iFBS, 2 mM L-glutamine, 100 U/mL penicillin, and 100 μg/mL streptomycin at 37 °C and 5% CO2.
A Thermo Scientific Multidrop Combi dispenser (MTX Lab Systems, Vienna, VA) was used to dispense 90 μL of T. cruzi amastigote–infected L6 cell culture (4×10^3 infected L6 cells per well) into 96-well Corning assay plates (Corning Inc., Corning, NY) already containing 10 μL of the compounds to be screened and controls. The plates were incubated at 37 °C for 96 h. Then, 30 μL of 100 μM CPRG and 0.1% NP40 diluted in PBS were added to each well, and the plates were incubated for 4 h at 37 °C in the dark. Absorbance at 585 nm was measured in a Vmax kinetic microplate reader ([…]). Compound activities were normalized using the in-plate negative (benznidazole at 10 μg/mL) and positive (0.2% DMSO) growth controls.

[7] = Aqueous pH 7.4 solubility; format: physicochemical; details: aqueous buffer, thermodynamic from solid; pH 7.4 phosphate buffer, 25 °C, 20-24 h; read-out: Aq. Solubility
Procedure: Compounds are dried down from 10 mM DMSO solutions using centrifugal evaporation technique. Phosphate buffer (0.1 M pH 7.4) added and StirStix inserted in the glass vials, shaking is then performed at a constant temperature of 25 °C for 20-24 h. This step is followed by double centrifugation with a tip wash in between, to ensure that no residues of the dried compound are interfering. The solutions are diluted before analysis and quantification using LC/MS/MS is performed.

[8] = Shake-flask octanol-water Log D7.4; format: physicochemical; details: pH 7.4, octanol-water shake-flask
Procedure: Shake-flask octanol-water distribution coefficient at pH 7.4 (Log D7.4). The aqueous solution used is 10 mM sodium phosphate pH 7.4 buffer. The method has been validated for Log D7.4 ranging from -2 to 5.0.

[9] = Human liver microsomal CLint; format: in vitro ADME; details: human, liver microsomes, read-out: HLM Clint
Procedure: In vitro intrinsic clearance determined from human liver microsomes using a standard approach. Following incubation and preparation, the samples are analyzed using LC/MS/MS.

Structure (SMILES) | MRC5 pTC50 [1] | T.b.b. pEC50 [2] | EC50 [2] [µM] | further results
CCc1cccc2c1/C(=N/Nc1ccc(S(N)(=O)=O)cc1)C(=O)N2 [NEU-5489] | <5.0^b | 7.5 | – | –
NS(=O)(=O)c1ccc(N/N=C2\C(=O)Nc3cccc(CC4CCC4)c32)cc1 [NEU-5492] | <5.0^b | 6.9 | – | –
NS(=O)(=O)c1ccc(N/N=C2\C(=O)Nc3ccc(Cl)cc32)cc1 [NEU-2319] | <5.0^b | 6.0 | – | –
NS(=O)(=O)c1ccc(N/N=C2\C(=O)Nc3cccc(CCc4ccc(O)cc4)c32)cc1 [NEU-5493] | – | 6.0 | – | –
O=C1Nc2ccccc2/C1=N/Nc1cc(Cl)cc(Cl)c1 [NEU-2117, (Z)-3-(2-(3,5-Dichlorophenyl)hydrazono)indolin-2-one] | <4.3 | – | > 39.8 | Adult severity score (10 μM) ([3]; 3h): 1; Adult severity score (10 μM) ([3]; 6h): 0; Adult severity score (10 μM) ([3]; 24h): 0; Adult severity score (10 μM) ([3]; 48h): 3; Somule severity score (10 μM) ([3]; 24h): 0; Somule severity score (10 μM) ([3]; 48h): 0; fraction unbound at 10 µM [4]: < 0.04; EC50 [5]: > 10 µM; EC50 [6]: > 10 µM; solubility [7]: < 3 µM; logD [8]: > 3.7
CCc1ccc2c(c1)NC(=O)/C2=N\Nc1ccc(S(N)(=O)=O)cc1 [NEU-5470] | <5.0^b | 6.1 | – | –
Cc1cc2c(c(C)c1O)/C(=N/Nc1ccc(S(N)(=O)=O)cc1)C(=O)N2 [NEU-5469] | <5.0^b | 8.2 | – | –
NS(=O)(=O)c1ccc(NN=C2C(=O)Nc3cc4c(cc32)NCC4)cc1 [NEU-5459] | <5.0^b | – | 0.794 | –
Cc1ccc2c(c1C)/C(=N/Nc1ccc(S(N)(=O)=O)cc1)C(=O)N2 [NEU-5479] | <5.0^b | 6.9 | – | –
CC(C)Cc1cccc2c1/C(=N/Nc1ccc(S(N)(=O)=O)cc1)C(=O)N2 [NEU-5487] | <5.0^b | 7.4 | – | –
Cc1ccc2c3c(ccc2n1)NC(=O)/C3=N\Nc1ccc(S(N)(=O)=O)cc1 [NEU-5456] | <5.0^b | – | 0.0398 | –
CC(C)c1cc2c(c(Cl)c1O)/C(=N/Nc1ccc(S(N)(=O)=O)cc1)C(=O)N2 [NEU-5455] | <5.0^b | 6.4 | – | –
Cc1cc2c(c(Cl)c1O)/C(=N/Nc1ccc(S(N)(=O)=O)cc1)C(=O)N2 [NEU-5485] | <5.0^b | 7.1 | – | –
NC(=O)c1cccc2c1/C(=N/Nc1ccc(S(N)(=O)=O)cc1)C(=O)N2 [NEU-5460] | <5.0^b | 6.2 | – | –
CC(C)=Cc1cccc2c1/C(=N/Nc1ccc(S(=O)(=O)N(C)C)cc1)C(=O)N2 [NEU-4405, (Z)-N,N-Dimethyl-4-(2-(4-(2-methylprop-1-en-1-yl)-2-oxoindolin-3-ylidene)hydrazinyl)benzenesulfonamide] | <4.3 | – | 5.01 | EC50 [5]: > 5.01 µM; EC50 [6]: > 20 µM
COc1ccc(N/N=C2\C(=O)Nc3ccccc32)cc1 [NEU-2114, (Z)-3-(2-(4-Methoxyphenyl)hydrazono)indolin-2-one] | <4.3 | – | 10 | Adult severity score (10 μM) ([3]; 3h): 0; Adult severity score (10 μM) ([3]; 6h): 0; Adult severity score (10 μM) ([3]; 24h): 0; Adult severity score (10 μM) ([3]; 48h): 0; Somule severity score (10 μM) ([3]; 24h): 2; Somule severity score (10 μM) ([3]; 48h): 0; fraction unbound at 10 µM [4]: < 0.03; EC50 [5]: > 10 µM; EC50 [6]: > 10 µM; solubility [7]: < 7 µM; logD [8]: > 3.3
Cc1c(Cl)ccc2c1/C(=N/Nc1ccc(S(N)(=O)=O)cc1)C(=O)N2 [NEU-5464] | <5.0^b | 7.3 | – | –
NS(=O)(=O)c1ccc(N/N=C2\C(=O)Nc3ccccc32)cc1 [NEU-2115, (Z)-4-(2-(2-Oxoindolin-3-ylidene)hydrazinyl)benzenesulfonamide] | <4.3 | – | 1.26 | fraction unbound at 10 µM [4]: 0.04; EC50 [5]: > 10 µM; microsomal CLint [9]: 20.4 µL/min/mg; EC50 [6]: > 10 µM; solubility [7]: < 8 µM; logD [8]: 2.3
CC(C)c1cccc2c1/C(=N/Nc1ccc(S(N)(=O)=O)cc1)C(=O)N2 [NEU-5491] | <5.0^b | 7.6 | – | –
